Laboratory results as given in article PMC4909201 (PLoS ONE, 2016).
Where two headings read alike, the source gives them in different places. Each block holds one compound with its values, some of them ahead of it.

Experiments:
[1] = biological target: T1, thrombin binding to GpIbα269-286ppp (Homo sapiens, UniProt P00734); test: SPR: effect of active site inhibitors on thrombin binding to immobilized GpIbα269-286ppp; details: for increase in affinity of thrombin for GpIbα269-286ppp: 2.5 μM inhibitor vs no inhibitor, p < 0.001; for Change: difference between thrombin binding without inhibitor and at saturating inhibitor
T1 construct: purchased Enzyme Research Laboratories (South Bend, IN)
Method: Between runs, flow cells were regenerated with 1 M NaCl for 30 s. […] EC50 values were determined as above. […] Binding affinities were calculated as described above.

[2] = biological target: T2, 125I-thrombin binding to γA/γA-fibrin clots (Homo sapiens, UniProt P00734); test: 125I-thrombin binding to γA/γA-fibrin clots; details: for Ki: EC50 converted by Cheng-Prusoff with Kd of 125I-thrombin for fibrin, 10 nM 125I-thrombin, 3 μM γA/γA-fibrinogen
T2 construct: purchased Enzyme Research Laboratories (South Bend, IN)

[3] = biological target: T3, 125I-thrombin binding to γA/γ′-fibrin clots (Homo sapiens, UniProt P00734); test: 125I-thrombin binding to γA/γ′-fibrin clots; details: for Ki: EC50 converted by Cheng-Prusoff with Kd of 125I-thrombin for fibrin, 10 nM 125I-thrombin, 1 μM γA/γ′-fibrinogen
T3 construct: purchased Enzyme Research Laboratories (South Bend, IN)

[4] = biological target: thrombin binding to immobilized factor Va (Homo sapiens, UniProt P00734); test: SPR: effect of active site inhibitors on thrombin binding to immobilized factor Va
Method: (§1) Flows cells were then washed with 1 M ethanolamine for 420 s, followed by the running buffer composed of 20 mM HEPES, 150 mM NaCl, pH 7.4 (HBS) containing 0.01% Tween-80 (HBS-Tw) and 5 mM CaCl2.
(§2) Because of the fast on- and off-rates, all SPR experiments were performed at a flow rate of 25 μl/min [28]. Association times were 120 s and dissociation was monitored by washing the flow cells with HBS-Tw for 600 s. Between runs, flow cells were regenerated with a 45 s wash with HBS-Tw containing 0.5 M CaCl2.
(§3) The rapid approach to equilibrium at the low flow rate nullified any potential mass transport concerns. Nonspecific binding was accounted for by subtracting the control RU values obtained from the unmodified flow cell.

[5] = biological target: thrombin binding to immobilized γA/γA-fibrin (Homo sapiens, UniProt P00734); test: SPR: effect of active site inhibitors on thrombin binding to immobilized γA/γA-fibrin
Method: as §1, §2, §3

[6] = biological target: thrombin binding to immobilized γA/γ′-fibrin (Homo sapiens, UniProt P00734); test: SPR: effect of active site inhibitors on thrombin binding to immobilized γA/γ′-fibrin
Method: as §1, §2, §3

thrombin = thrombin inhibition; cited from earlier work
[7] = maximal change in percentage of bound 125I-thrombin vs no inhibitor
[8] = maximal change in percentage of bound 125I-thrombin vs no inhibitor, listed as argatroban
[9] = given as reduction (positive number)
[10] = maximal change in percentage of bound 125I-thrombin vs no inhibitor, listed as hirudin
[11] = 0–5000 nM inhibitor, 250–500 nM thrombin

- increase in affinity of thrombin for GpIbα269-286ppp [1]: 25–35%
- Change [1]: +17.3 ± 0.6%
- Change ([1]; listed as argatroban): 17%
- Change [2, 7]: +18.3 ± 5.0%
- Change [2, 8]: 15–25%
- Change [3, 7]: +26.1 ± 0.4%
- Change [3, 8]: 15–25%
Compound: CC1CNc2c(cccc2S(=O)(=O)N[C@@H](CCCNC(=N)N)C(=O)N2CC[C@@H](C)C[C@@H]2C(=O)O)C1 (stereo partly shown) [Argatroban, argatroban]

Compound: [H]/N=C(/N)c1ccc(NCc2nc3cc(C(=O)N(CCC(=O)O)c4ccccn4)ccc3n2C)cc1 [Dabigatran, dabigatran]
- Change [1]: 0%
- Change ([1]; listed as dabigatran): no effect
- Change [2]: -21.4 ± 3.3%
- Change [3]: -9.4 ± 1.4%
- reduction of thrombin binding at saturation [4, 9]: 37.9 ± 3.2%
- reduction of thrombin binding at saturation [5, 9]: 47.6 ± 0.4%
- reduction of thrombin binding at saturation [6, 9]: 28.4 ± 1.6%

Compound: Hirudin
- Ki [2]: 3.4 ± 0.3 nM
- Change [2, 7]: -100%
- Change [2, 10]: fully inhibited
- Ki [3]: 3.4 ± 0.1 nM
- Change [3, 7]: -100%
- Change [3, 10]: fully inhibited

Compound: CCC1CCN(C(=O)C(CCCN=C(N)N)NS(=O)(=O)c2cccc3c(N(C)C)cccc23)CC1 (stereo not shown) [DAPA, dansylarginine N-(3-ethyl-1,5-pentanediyl)amide]
- EC50 ([1]; 0–5000 nM inhibitor, 250 nM thrombin): 1290 ± 32.3 nM
- increase in affinity of thrombin for GpIbα269-286ppp [1]: 25–35%
- Ki [2]: 2.1 ± 0.9 nM
- Ki [3]: 19.6 ± 19.1 nM
- Ki (thrombin): 45 nM
- EC50 [4, 11]: 565 ± 200 nM
- EC50 ([5]; 0–5000 nM inhibitor, 250–500 nM thrombin, Req vs inhibitor concentration): 514 ± 24 nM
- EC50 [6, 11]: 516 ± 31 nM
